Common to all, as to test: MIC, broth microdilution (NCCLS)
Background: Dilution methods test growth across graded concentrations, often in twofold steps.

Experiment [1] concerns Enterococcus faecalis Enfa_29212. It counts as cell-based. As to conditions: Table 7, Strain ID D (Table 6): E. faecalis Enfa_29212; in µg/mL (unit assumed). Put shortly: (§1)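 Broth microdilution per NCCLS in cation-adjusted Mueller-Hinton broth, with 2-5% lysed horse blood added for S. pneumoniae. Inoculum 3×10^5–7×10^5 CFU/ml, 2-fold drug dilutions, 18-24 h at 35° C; S. pneumoniae under 5-10% CO2, others ambient air. MIC = lowest concentration preventing visible growth.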

For experiment [2], the system named is Haemophilus influenzae Hain_49247. In kind it is cell-based. Conditions: Table 7, Strain ID M (Table 6): H. influenzae Hain_49247; unit assumed.
Experiment [3] concerns Staphylococcus aureus Stau_29213. In kind it is cell-based. As to conditions: Table 7, Strain ID A (Table 6): S. aureus Stau_29213; in µg/mL (unit assumed). In a few lines: as §1
In experiment [4] the test system is Staphylococcus epidermidis Step_14990. It counts as cell-based. Conditions: Table 7, Strain ID B (Table 6): S. epidermidis Step_14990; in µg/mL (unit assumed). Put shortly: as §1
Experiment [5] deals with Staphylococcus epidermidis Step_f50654. In kind it is cell-based. As to conditions: Table 7, Strain ID C (Table 6): S. epidermidis Step_f50654; in µg/mL (unit assumed). In a few lines:
as §1

Experiment [6] relates to Streptococcus pneumoniae Stpn_Erm S 4297. In kind it is cell-based. Conditions: Table 7, Strain ID J (Table 6): S. pneumoniae Stpn_Erm S 4297. Put shortly: as §1
In experiment [7] the test system is Streptococcus pneumoniae Stpn_Mef S 3427. It counts as cell-based. As to conditions: Table 7, Strain ID L (Table 6): S. pneumoniae Stpn_Mef S 3427. In a few lines: as §1
Experiment [8] deals with Streptococcus pyogenes Stpy_8668. In kind it is cell-based. As to conditions: Table 7, Strain ID E (Table 6): S. pyogenes Stpy_8668. Put shortly:
as §1

Experiment [9] concerns Streptococcus pneumoniae Stpn_49619. In kind it is cell-based. As to conditions: Table 7, Strain ID F (Table 6): S. pneumoniae Stpn_49619. In a few lines: as §1
Experiment [10] concerns Streptococcus pneumoniae Stpn_297-749. It counts as cell-based. As to conditions: Table 7, Strain ID G (Table 6): S. pneumoniae Stpn_297-749. Put shortly:
as §1

Experiment [11] deals with Streptococcus pneumoniae Stpn_280-962. In kind it is cell-based. As to conditions: Table 7, Strain ID H (Table 6): S. pneumoniae Stpn_280-962. Put shortly: as §1
Experiment [12] concerns S. pneumoniae Stpn_Erm 6849. In kind it is cell-based, Streptococcus pneumoniae. As to conditions: Table 7, Strain ID I (Table 6): S. pneumoniae Stpn_Erm 6849; unit assumed. As to the method:
(§2) Strains. The bacterial isolates listed in Table 4 were cultivated from −70° C. frozen stocks by two consecutive overnight passages (P1, P2) at 35° C. on 5% blood agar (Remel, Lenexa, Kans.). Chocolate agar (Remel) is used for Haemophilus influenzae. H. influenzae and Streptococcus pneumoniae are incubated in 5-10% CO2
(§3) Drug Stock Preparation. To determine the amount of solvent to be used to give the desired final concentration, the formula “weight obtained in mg/final concentration in mg/ml” will be used. It will give the amount of solvent in ml needed to be added to give the desired concentration. For example, if 2.5 mg/ml is the desired concentration and the weight of compound is 13.7 mg, then the amount of solvent to be added is […]. Methanol is used as the solvent to dissolve the test compounds. Further dilution of stock is done in sterile, deionized water. Drug stocks are kept frozen at −70° C., protected from light.
(§4) Susceptibility Testing. MICs are determined by the broth microdilution method in accordance with the NCCLS guidelines. In brief, organism suspensions are adjusted to a 0.5 McFarland standard to yield a final inoculum between 3×10^5 and 7×10^5 CFU/ml. Drug dilutions and inocula are made in sterile, cation adjusted Mueller-Hinton Broth (CAMHB) (Remel) for all but S. pneumoniae [CAMHB with 2-5% lysed horse blood (Remel)] and H. influenzae [Haemophilus Test Medium (Remel)]. An inoculum volume of 100 μl is added to wells containing 100 μl of broth with 2-fold serial dilutions of drug. All inoculated microdilution trays are incubated in ambient air at 35° C. for 18-24 hours, except for S. pneumoniae, and H. influenzae (both at 5-10% CO2).
(§5) Following appropriate incubation, the MIC is determined and the MIC is defined as the lowest concentration of the drug that prevented visible growth.

In experiment [13] the test system is Streptococcus pneumoniae Stpn_Mef 5654. It counts as cell-based. Conditions: Table 7, Strain ID K (Table 6): S. pneumoniae Stpn_Mef 5654; in µg/mL (unit assumed). As to the method: as §2, §3, §4, §5
Strains. The bacterial isolates listed in Table 8 were cultivated from −70° C. frozen stocks by two consecutive overnight passages (P1, P2) at 35° C. on 5% blood agar (Remel, Lenexa, Kans.). Chocolate agar (Remel) is used for Haemophilus influenzae. H. influenzae and Streptococcus pneumoniae are incubated in 5-10% CO2
Following appropriate incubation, the MIC is determined and the MIC is defined as the lowest concentration of the drug that prevented visible growth. […] Antibacterial activity of representative compounds of the invention were compared against telitromycin.

≈ marks a conversion by molar mass, not a printed value.

`CCC1OC(=O)C(C)C(=O)C(C)C(OC2OC(C)CC(N(C)C)C2O)C(C)(OC)CC(C)C(=O)C(C)C2C1OC(=O)N2CCCCc1ncc(-c2ccc(F)cc2F)s1` (stereo not drawn) [Compound 20u]: the MIC was found to be 0.4 in experiment [1]; 25 µg/mL (≈ 29.4 µM) in [2]; 0.78 in experiment [3]; 0.78 in experiment [4]; 0.4 in experiment [5]; 12.5 µg/mL (≈ 14.7 µM) in experiment [6] (unit assumed). In addition, the MIC came to 0.2 in [7] (in µg/mL (unit assumed)); 0.4 µg/mL (≈ 0.471 µM) in experiment [8] (unit assumed); 0.1 µg/mL (≈ 0.118 µM) in [9] (unit assumed); 0.1 µg/mL (≈ 0.118 µM) in experiment [10] (unit assumed); 0.1 µg/mL (≈ 0.118 µM) in [11] (unit assumed); 25 µg/mL (≈ 29.4 µM) in experiment [12]. In addition, in [13], the MIC is 1.56.
Take `CCC1OC(=O)C(C)C(=O)C(C)C(OC2OC(C)CC(N(C)C)C2O)C(C)(OC)CC(C)C(=O)C(C)C2C1OC(=O)N2CCCCc1ncc(-c2cccc(N)c2)s1` (stereo not drawn) [Compound 20v]: the MIC in experiment [1] amounted to 0.2; in [2], 6.25 µg/mL (≈ 7.54 µM); in experiment [3], 0.4; in experiment [4], 0.4; in experiment [5], 0.2; in experiment [6] (unit assumed), 0.4 µg/mL (≈ 0.482 µM). In addition, the MIC result in experiment [7] is “=0.05”; in [8], “=0.05”; in experiment [9], “=0.05”; in [10] it was “=0.05”; in experiment [11], “=0.05”; in experiment [12] it was 50 µg/mL (≈ 60.3 µM). The molecule further displayed an MIC in experiment [13] of 0.78.
Turning to `CCC1OC(=O)C(C)C(=O)C(C)C(OC2OC(C)CC(N(C)C)C2O)C(C)(OC)CC(C)C(=O)C(C)C2C1OC(=O)N2OCCOc1ccccc1` (stereo not drawn) [Compound 20w], the MIC in experiment [1] is 0.2; in experiment [2] it was 50 µg/mL (≈ 68 µM); in experiment [3], 3.13; in [4], 1.56; in experiment [5] it was 3.13; in experiment [6] (unit assumed), 3.13 µg/mL (≈ 4.26 µM). Moreover, the MIC in experiment [7] (in µg/mL (unit assumed)) was 0.1; in experiment [8] it was “=0.05”; in experiment [9], “=0.05”; in experiment [10], “=0.05”; in [11] it was “=0.05”; in [12] it was 12.5 µg/mL (≈ 17 µM). In experiment [13], this molecule had an MIC of 0.4.
Turning to `CC[C@H]1OC(=O)[C@H](C)C(=O)[C@H](C)[C@@H](OC2O[C@H](C)C[C@H](N(C)C)[C@H]2O)[C@@](C)(OC)C[C@@H](C)C(=O)[C@H](C)[C@H]2N(CCCC(C)(C)n3cnc(-c4cccnc4)c3)C(=O)O[C@]12CC` (stereo partly drawn) [Example 31, (3aS,4R,7R,9R,10R,11S,13R,15R,15aR)-3a,4-diethyl-11-methoxy-7,9,11,13,15-pentamethyl-1-[4-methyl-4-(4-pyridin-3-yl-1H-imidazol-1-yl)pentyl]-2,6,8,14-tetraoxotetradecahydro-2H-oxacyclotetradecino[4,3-d][1,3]oxazol-10-yl-3,4,6-trideoxy-3-(dimethylamino)-D-xylo-hexopyranoside], the MIC is 0.2 in [1]; 6.25 µg/mL (≈ 7.32 µM) in [2]; 0.2 in [3]; 0.4 in [4]; 0.4 in [5]; 0.2 µg/mL (≈ 0.234 µM) in experiment [6] (unit assumed). Also, the MIC in experiment [7] (in µg/mL (unit assumed)) is 0.2; in [8] it was “=0.05”; in [9], “=0.05”; in experiment [10], “=0.05”; in experiment [11], “=0.05”; in experiment [12], 0.4 µg/mL (≈ 0.468 µM). The molecule also came in with an MIC in experiment [13] of 0.78.
With `CC[C@H]1OC(=O)[C@@](C)(F)C(=O)[C@H](C)[C@@H](OC2O[C@H](C)C[C@H](N(C)C)[C@H]2O)[C@@](C)(OC)C[C@@H](C)C(=O)[C@H](C)[C@H]2N(CCCC(C)(C)n3cnc4ncccc43)C(=O)O[C@]12CC` (stereo partly drawn) [Example 39, (3aS,4R,7S,9R,10R,11S,13R,15R,15aR)-3a,4-diethyl-7-fluoro-1-[4-(1H-imidazo[4,5-b]pyridin-1-yl)-4-methylpentyl]-11-methoxy-7,9,11,13,15-pentamethyl-2,6,8,14-tetraoxotetradecahydro-2H-oxacyclotetradecino[4,3-d][1,3]oxazol-10-yl-3,4,6-trideoxy-3-(dimethylamino)-D-xylo-hexopyranoside], the MIC in experiment [1] is 0.1; in experiment [2] it was 3.13 µg/mL (≈ 3.7 µM); in [3], 0.2; in experiment [4], 0.1; in experiment [5], 0.4; in [6] it was “=0.05”. Moreover, the MIC in experiment [7] (in µg/mL (unit assumed)) is 0.2; in experiment [8], “=0.05”; in experiment [9], “=0.05”; in [10] it was “=0.05”; in experiment [11] it was “=0.05”; in experiment [12] it was 0.1 µg/mL (≈ 0.118 µM). The molecule further displayed an MIC in [13] of 0.78.
On to `CC[C@H]1OC(=O)[C@@](C)(F)C(=O)[C@H](C)[C@@H](OC2O[C@H](C)C[C@H](N(C)C)[C@H]2O)[C@@](C)(OC)C[C@@H](C)C(=O)[C@H](C)[C@H]2N(CCCC(C)(C)n3cnc4cccnc43)C(=O)O[C@]12CC` (stereo partly drawn) [Example 40, (3aS,4R,7S,9R,10R,11S,13R,15R,15aR)-3a,4-diethyl-7-fluoro-1-[4-(3H-imidazo[4,5-b]pyridin-3-yl)-4-methylpentyl]-11-methoxy-7,9,11,13,15-pentamethyl-2,6,8,14-tetraoxotetradecahydro-2H-oxacyclotetradecino[4,3-d][1,3]oxazol-10-yl-3,4,6-trideoxy-3-(dimethylamino)-D-xylo-hexopyranoside], for which the MIC is 0.1 in experiment [1]; 6.25 µg/mL (≈ 7.39 µM) in experiment [2]; 0.2 in experiment [3]; 0.2 in experiment [4]; 0.2 in experiment [5]; “=0.05” in experiment [6]. Further, the MIC in experiment [7] (in µg/mL (unit assumed)) was 0.2; in experiment [8] it was “=0.05”; in experiment [9] it was “=0.05”; in experiment [10] it was “=0.05”; in [11] it was “=0.05”; in [12] it was 0.2 µg/mL (≈ 0.236 µM). Also, the MIC in experiment [13] is on record as 0.78.

For the origin of these results see patent US7332476B2, “Pyridyl substituted ketolide antibiotics” (Novartis AG, priority 2003, dated 2008).
